Converted amounts (≈) assume the structure as drawn. Where two headings read alike, the source gives them in different places. Ends that are not written are not given here.
Experiments:
[1] = test system: Enterococcus faecium LMG11423
[2] = Thermal stability (residual antimicrobial activity); format: physicochemical
Protocol: (§1) An overnight culture of test strains was added at 0.1% (vol/vol) into melted GM17 agar at 45°C and poured in plates. After agar solidification, wells of 8 mm were bored and filled with 30 µL of the lantibiotic solution. When necessary, the lantibiotic was activated with 5 µL of nisP added directly into the well. Peptides were resuspended in 0.05% aqueous acetic acid solution and the cesin amount was determined using the NanoDrop (Thermo Scientific) calibrated with the extinction coefficient predicted by ExPASy (http://web.expasy.org/protparam/). The agar plates were incubated at 30°C overnight, after which, the zones of inhibition were measured. Zone diameters were measured in millimeters and recorded as area of the zone (πr^2) minus the area of the well (πr^2) in millimeters. Where necessary, cesin was compared with nisin and nisin(1–22). Assays were performed in triplicate.

[3] = test system: Lactococcus lactis MG1363
[4] = test system: Staphylococcus aureus LMG10147
[5] = target: proteinase K (Parengyodontium album, UniProt P06873); experiment: Stability against proteinase K (residual antimicrobial activity); conditions: 1 mg/mL proteolytic enzyme (pH 7.2), relative antimicrobial activity against L. lactis MG1363, agar well; three biological replicates; Fig. 8B
[6] = test system: Bacillus cereus CH-85
[7] = test system: nisin resistance protein (NSR); conditions: 30 µL 0.1 mg/mL peptide, agar well, L. lactis NZ9000 (pNSR) vs L. lactis NZ9000 (pEmpty); three biological replicates; Fig. 8A
[8] = test system: Listeria monocytogenes LMG10470
[9] = test system: Enterococcus faecalis LMG16216 (VRE)
[10] = test system: Listeria monocytogenes LK132
[11] = test system: Listeria monocytogenes TT82E
[12] = test system: Enterococcus faecium LMG16003 (VRE)
[13] = test system: Staphylococcus aureus LMG15975 (MRSA)
[14] = test system: sheep erythrocytes; experiment: Hemolytic activity assay; format: cell-based; conditions: sheep erythrocytes 2% (vol/vol) in PBS, up to 64 µg/mL, 37°C for 40 min, absorbance 420 nm relative to Triton X-100, triplicate; Fig. 9
Protocol: The hemolytic activity of cesin and nisin was determined as previously described ([65]). Briefly, fresh sheep blood (Sigma-Aldrich) was washed with 0.1 M PBS (pH 7.4; Sigma-Aldrich) three times to remove plasma (500 × g for 5 min), and then the erythrocytes were collected and diluted 1:50 in PBS. The lantibiotics were then added at final concentrations of 64, 32, 16, 8, 4, 2, and 0 µg/mL in PBS to wells containing 2% (vol/vol) washed erythrocytes. The cells were incubated at 37°C for 40 min, then centrifuged for 5 min at 3,100 g. The supernatants were transferred to a 96-well plate, and the absorbance was measured at a wavelength of 420 nm with a Synergy HT microplate reader (BioTek, Lucerne, Switzerland). The absorbance relative to the positive control, which was treated with 0.1% Triton X-100, was defined as the percentage of hemolysis. The analysis was carried out in triplicate.

[15] = test system: L. lactis MG1363; experiment: Agar well diffusion assay of cesin analogs; format: cell-based, Lactococcus lactis; conditions: for antimicrobial activity compared to cesin: L. lactis MG1363, 30°C overnight, triplicate, Fig. 5B, 6B, S1
Protocol: as §1

[16] = test system: E. faecium; experiment: Agar well diffusion assay of cesin analogs; format: cell-based, Enterococcus faecium; conditions: triplicate, Fig. 5B, S1
Protocol: as §1

proteinase K, sequence (P06873 106-384): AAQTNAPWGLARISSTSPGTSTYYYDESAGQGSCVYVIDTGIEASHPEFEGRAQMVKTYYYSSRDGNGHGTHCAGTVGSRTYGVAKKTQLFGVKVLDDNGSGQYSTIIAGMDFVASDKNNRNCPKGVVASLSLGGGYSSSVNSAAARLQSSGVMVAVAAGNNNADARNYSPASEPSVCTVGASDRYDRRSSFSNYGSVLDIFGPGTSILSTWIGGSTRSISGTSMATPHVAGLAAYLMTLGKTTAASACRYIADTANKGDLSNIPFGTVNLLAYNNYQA

Compound	MIC [1]	MIC [3]	MIC [4]	MIC [6]	resistance to the cleavage action of NSR [7]	MIC [8]	MIC [9]	MIC [10]	MIC [11]	MIC [12]	MIC [13]	antimicrobial activity compared to cesin [15]	antimicrobial activity compared to cesin [16]	further results
C=C1NC(=O)[C@H](Cc2c[nH]c3ccccc23)NC(=O)C(NC(=O)C(=CC)NC(=O)[C@@H](N)[C@@H](C)CC)CSC[C@@H](C(=O)NC2C(=O)N[C@@H](C)C(=O)NCC(=O)N[C@H](C(=O)N[C@H](C(=O)NC3C(=O)NCC(=O)N[C@@H](CCCNC(=N)N)C(=O)N[C@@H]([C@@H](C)CC)C(=O)N[C@@H](CCSC)C(=O)NCC(=O)N[C@H](C(=O)N[C@@H](CC(N)=O)C(=O)N[C@@H](CCCCN)C(=O)O)CSC3C)[C@@H](C)CC)CSC2C)NC(=O)[C@H](CC(C)C)NC1=O (stereo partly shown) [Cesin]	5.13 µg/mL (≈ 2.41 µM)	0.08 µg/mL (≈ 0.0376 µM)	5.13 µg/mL (≈ 2.41 µM)	20.50 µg/mL (≈ 9.64 µM)	fully resistant	2.56 µg/mL (≈ 1.2 µM)	5.13 µg/mL (≈ 2.41 µM)	10.25 µg/mL (≈ 4.82 µM)	5.13 µg/mL (≈ 2.41 µM)	10.25 µg/mL (≈ 4.82 µM)	5.13 µg/mL (≈ 2.41 µM)	–	–	thermal stability, time stable [2]: stable for up to 4 h; stability against proteinase K [5]: more resistant to proteinase K
C=C1NC(=O)[C@H]([C@@H](C)CC)NC(=O)C(NC(=O)C(=CC)NC(=O)[C@@H](N)[C@@H](C)CC)CSC[C@@H](C(=O)NC2C(=O)N3CCC[C@H]3C(=O)NCC(=O)N[C@H](C(=O)N[C@@H](CCCCN)C(=O)NC3C(=O)NCC(=O)N[C@@H](C)C(=O)N[C@@H](CC(C)C)C(=O)N[C@@H](CCSC)C(=O)NCC(=O)N[C@H](C(=O)N[C@@H](CC(N)=O)C(=O)N[C@@H](CCSC)C(=O)N[C@@H](CCCCN)C(=O)O)CSC3C)CSC2C)NC(=O)[C@H](CC(C)C)NC1=O (stereo partly shown) [Nisin(1–22), reference compound]	41.00 µg/mL (≈ 19.2 µM)	1.28 µg/mL (≈ 0.598 µM)	20.50 µg/mL (≈ 9.58 µM)	>41.00 µg/mL	–	41.00 µg/mL (≈ 19.2 µM)	>41.00 µg/mL	41.00 µg/mL (≈ 19.2 µM)	10.25 µg/mL (≈ 4.79 µM)	>41.00 µg/mL	20.50 µg/mL (≈ 9.58 µM)	–	–	–
C=C(NC(=O)[C@@H](NC(=O)[C@H](Cc1c[nH]cn1)NC(=O)[C@@H](NC(=O)[C@H](CO)NC(=O)[C@@H]1CSC(C)C2NC(=O)[C@H](C)NC(=O)C(NC(=O)[C@H](CCCCN)NC(=O)[C@H](CCSC)NC(=O)[C@H](CC(N)=O)NC(=O)[C@@H]3CSC(C)C(NC(=O)[C@H](CCCCN)NC(=O)[C@@H]4CSC(C)C(NC(=O)[C@@H]5CSCC(NC(=O)C(=CC)NC(=O)[C@@H](N)[C@@H](C)CC)C(=O)N[C@@H]([C@@H](C)CC)C(=O)NC(=C)C(=O)N[C@@H](CC(C)C)C(=O)N5)C(=O)N5CCC[C@H]5C(=O)NCC(=O)N4)C(=O)NCC(=O)N[C@@H](C)C(=O)N[C@@H](CC(C)C)C(=O)N[C@@H](CCSC)C(=O)NCC(=O)N3)C(C)SC[C@H](NC2=O)C(=O)N[C@@H](CC(N)=O)C(=O)N1)[C@@H](C)CC)C(C)C)C(=O)N[C@@H](CCCCN)C(=O)O (stereo partly shown) [Nisin]	–	–	–	–	inactivated	–	–	–	–	–	–	–	–	thermal stability, time stable ([2]; incubated at 22°C, 55°C, 75°C, 95°C, read-out antimicrobial activity against L. lactis MG1363 (agar well), three biological replicates, Fig. 7A, B): stable for up to 4 h; hemolysis [14]: comparable to that of nisin
ITSWSLCTAGCITGRIMGCNKTATCHCSIHVSK (also: bicyclic or more (positions not given here)) [cesin NK, cesin-nisin(23–34) hybrid]	–	–	–	–	–	–	–	–	–	–	–	significant loss of antimicrobial activity	significant loss of antimicrobial activity	–
ITSWSLCTAGCITGRIMGCNMKTATCHCSIHVSK (also: bicyclic or more (positions not given here)) [cesin NMK, cesin(1–20)-nisin(21–34) hybrid]	–	–	–	–	–	–	–	–	–	–	–	significant loss of antimicrobial activity	significant loss of antimicrobial activity	antimicrobial activity compared to cesin NK ([15]; Fig. 5B (L. lactis MG1363 and E. faecium, sentence names no strain)): significantly higher antimicrobial activity

Source: publication PMC10581189, “Cesin, a short natural variant of nisin, displays potent antimicrobial activity against major pathogens despite lacking two C-terminal macrocycles” (Microbiology Spectrum, 2023)
